Results on nine compounds are retold here after PubChem BioAssay AID1259407 (Chemical Carcinogenesis Research Information System (CCRIS), 2018).

Each structure is given as a SMILES string. The source made the active and inactive calls. The rule behind the calls is not given here.

This data set deals with CCRIS mutagenicity, Ames/micronucleus/aberration tests. Nature of the data set: CCRIS mutagenicity studies.
Setting [1] is: Test System: AMES SALMONELLA TYPHIMURIUM, Strain/Indicator: TA98, Metabolic Activation: RAT, LIVER, S-9, AROCLOR 1254, Method: PREINCUBATION
Setting [2] is: Test System: AMES SALMONELLA TYPHIMURIUM, Strain/Indicator: TA100, Metabolic Activation: RAT, LIVER, S-9, AROCLOR 1254, Method: PREINCUBATION
The mark [3] stands for this setting: Test System: AMES SALMONELLA TYPHIMURIUM, Strain/Indicator: TA98, Metabolic Activation: NONE, Method: PREINCUBATION
[4] abbreviates: Test System: AMES SALMONELLA TYPHIMURIUM, Strain/Indicator: TA100, Metabolic Activation: NONE, Method: PREINCUBATION
Where [5] appears, read: Test System: AMES SALMONELLA TYPHIMURIUM, Strain/Indicator: TA1535, Metabolic Activation: NONE, Method: PREINCUBATION
Where [6] appears, read: Test System: AMES SALMONELLA TYPHIMURIUM, Strain/Indicator: TA1537, Metabolic Activation: NONE, Method: PREINCUBATION
[7] abbreviates: Test System: AMES SALMONELLA TYPHIMURIUM, Strain/Indicator: TA98, Metabolic Activation: NONE, Method: STANDARD PLATE.
Where [8] appears, read: Test System: AMES SALMONELLA TYPHIMURIUM, Strain/Indicator: TA98, Metabolic Activation: RAT, LIVER, S-9, AROCLOR 1254, Method: STANDARD PLATE.
[9] abbreviates: Test System: AMES SALMONELLA TYPHIMURIUM, Strain/Indicator: TA100, Metabolic Activation: NONE, Method: STANDARD PLATE.
The mark [10] stands for this setting: Test System: AMES SALMONELLA TYPHIMURIUM, Strain/Indicator: TA100, Metabolic Activation: RAT, LIVER, S-9, AROCLOR 1254, Method: STANDARD PLATE.

As for `Fc1ccc2c3c(ccc2c1)-c1cccc2cccc-3c12`, the mutagenic call is, setting by setting: (Test System: AMES SALMONELLA TYPHIMURIUM, Strain/Indicator: TA97A, Metabolic Activation: RAT, LIVER, S-9, AROCLOR 1254, Method: PREINCUBATION) “active; positive”; under setting [1], “active; positive”; under setting [2], “active; positive”.

Turning to `O=[N+]([O-])c1c(O)ccc2ccccc12`, under setting [3], the mutagenic call was “active; positive”.

For the compound `CCOC(=O)Nc1ccc(SC[C@@H]2CO[C@@](Cn3ccnc3)(c3ccc(Cl)cc3Cl)O2)cc1`, the mutagenic call (End Point: IN VIVO MICRONUCLEUS, Test System: BLOOD ERYTHROCYTES, Species: MOUSE, Strain/Sex: CD-1/MALE, Route: ORAL) is “active; positive (at 48 and 72 hr at higher dose)”.

Regarding `ClC(Cl)(Cl)C(Cl)(Cl)Cl`, the mutagenic call runs as follows: (End Point: IN VITRO CHROMOSOMAL ABERRATIONS, Test System: CHINESE HAMSTER OVARY CELLS, Metabolic Activation: RAT, LIVER, S-9, AROCLOR 1254) “inactive; negative; precipitation occurred at all doses”; (Test System: AMES SALMONELLA TYPHIMURIUM, Strain/Indicator: TA98, Metabolic Activation: HAMSTER, LIVER, S-9, AROCLOR 1254, Method: PREINCUBATION) “inactive; negative”; under setting [3], “inactive; negative”; under setting [1], “inactive; negative”; (Test System: AMES SALMONELLA TYPHIMURIUM, Strain/Indicator: TA100, Metabolic Activation: HAMSTER, LIVER, S-9, AROCLOR 1254, Method: PREINCUBATION) “inactive; negative”; under setting [4], “inactive; negative”. Further, the mutagenic call runs as follows: under setting [2], “inactive; negative”; (Test System: AMES SALMONELLA TYPHIMURIUM, Strain/Indicator: TA1535, Metabolic Activation: HAMSTER, LIVER, S-9, AROCLOR 1254, Method: PREINCUBATION) “inactive; negative”; under setting [5], “inactive; negative”; (Test System: AMES SALMONELLA TYPHIMURIUM, Strain/Indicator: TA1535, Metabolic Activation: RAT, LIVER, S-9, AROCLOR 1254, Method: PREINCUBATION) “inactive; negative”; (Test System: AMES SALMONELLA TYPHIMURIUM, Strain/Indicator: TA1537, Metabolic Activation: HAMSTER, LIVER, S-9, AROCLOR 1254, Method: PREINCUBATION) “inactive; negative”; under setting [6], “inactive; negative”. Also, the mutagenic call (Test System: AMES SALMONELLA TYPHIMURIUM, Strain/Indicator: TA1537, Metabolic Activation: RAT, LIVER, S-9, AROCLOR 1254, Method: PREINCUBATION) is “inactive; negative”.

For the compound `c1cc2c3c(c4c(ccc5ccccc54)cc3c1)C1=C2O1`, the mutagenic call (Test System: CHINESE HAMSTER V-79, Strain/Indicator: V-79/6-THIOGUANINE, Metabolic Activation: NONE, Method: SUSPENSION/PLATE) is “active; positive”.

For the compound `CCCC(=O)c1cc(O)c(O)cc1O`, the mutagenic call reads like this: (Test System: AMES SALMONELLA TYPHIMURIUM, Strain/Indicator: TA98, Metabolic Activation: HAMSTER, LIVER, S-9, AROCLOR 1254 (10%), Method: PREINCUBATION) “active; positive”; under setting [3], “inactive; negative”; (Test System: AMES SALMONELLA TYPHIMURIUM, Strain/Indicator: TA98, Metabolic Activation: RAT, LIVER, S-9, AROCLOR 1254 (10%), Method: PREINCUBATION) “inactive; negative”; (Test System: AMES SALMONELLA TYPHIMURIUM, Strain/Indicator: TA100, Metabolic Activation: HAMSTER, LIVER, S-9, AROCLOR 1254 (10%), Method: PREINCUBATION) “inactive; negative”; under setting [4], “inactive; negative”; (Test System: AMES SALMONELLA TYPHIMURIUM, Strain/Indicator: TA100, Metabolic Activation: RAT, LIVER, S-9, AROCLOR 1254 (10%), Method: PREINCUBATION) “active; positive”. Further, the mutagenic call is “inactive; negative” (Test System: AMES SALMONELLA TYPHIMURIUM, Strain/Indicator: TA1535, Metabolic Activation: HAMSTER, LIVER, S-9, AROCLOR 1254 (10%), Method: PREINCUBATION); “inactive; negative” under setting [5]; “inactive; negative” (Test System: AMES SALMONELLA TYPHIMURIUM, Strain/Indicator: TA1535, Metabolic Activation: RAT, LIVER, S-9, AROCLOR 1254 (10%), Method: PREINCUBATION); “inactive; negative” (Test System: AMES SALMONELLA TYPHIMURIUM, Strain/Indicator: TA1537, Metabolic Activation: HAMSTER, LIVER, S-9, AROCLOR 1254 (10%), Method: PREINCUBATION); “inactive; negative” under setting [6]; “active; positive” (Test System: AMES SALMONELLA TYPHIMURIUM, Strain/Indicator: TA1537, Metabolic Activation: RAT, LIVER, S-9, AROCLOR 1254 (10%), Method: PREINCUBATION).

Regarding `CNCCC=C1c2ccccc2CCc2ccccc21`, the mutagenic call is, setting by setting: under setting [7], “inactive; negative”; under setting [8], “inactive; negative”; under setting [9], “inactive; negative”; under setting [10], “inactive; negative”; (Test System: AMES SALMONELLA TYPHIMURIUM, Strain/Indicator: TA1535, Metabolic Activation: NONE, Method: STANDARD PLATE) “inactive; negative”; (Test System: AMES SALMONELLA TYPHIMURIUM, Strain/Indicator: TA1535, Metabolic Activation: RAT, LIVER, S-9, AROCLOR 1254, Method: STANDARD PLATE) “inactive; negative”. The mutagenic call was “inactive; negative” (Test System: AMES SALMONELLA TYPHIMURIUM, Strain/Indicator: TA1537, Metabolic Activation: NONE, Method: STANDARD PLATE) and “inactive; negative” (Test System: AMES SALMONELLA TYPHIMURIUM, Strain/Indicator: TA1537, Metabolic Activation: RAT, LIVER, S-9, AROCLOR 1254, Method: STANDARD PLATE).

Consider `CCc1cc(-c2ccccc2)ccc1N`, for which the mutagenic call is “inactive; negative” under setting [7]; “active; positive” (Test System: AMES SALMONELLA TYPHIMURIUM, Strain/Indicator: TA98, Metabolic Activation: RAT LIVER S-9, AROCLOR, Method: STANDARD PLATE); “active; positive” under setting [9]; “active; positive” (Test System: AMES SALMONELLA TYPHIMURIUM, Strain/Indicator: TA100, Metabolic Activation: RAT LIVER S-9, AROCLOR, Method: STANDARD PLATE).

For the compound `CCC(CCC(C)=O)COC(=O)c1ccccc1C(=O)O` (stereo not given), the mutagenic call is “inactive; negative” (Test System: AMES SALMONELLA TYPHIMURIUM, Strain/Indicator: TA97, Metabolic Activation: NONE, Method: STANDARD PLATE); “inactive; negative” (Test System: AMES SALMONELLA TYPHIMURIUM, Strain/Indicator: TA97, Metabolic Activation: RAT, LIVER, S-9, AROCLOR 1254, Method: STANDARD PLATE); “inactive; negative” (Test System: AMES SALMONELLA TYPHIMURIUM, Strain/Indicator: TA97, Metabolic Activation: RAT, LIVER, S-9, DI(2-ETHYLHEXYL)PHTHALATE, Method: STANDARD PLATE); “inactive; negative” under setting [7]; “inactive; negative” under setting [8]; “inactive; negative” (Test System: AMES SALMONELLA TYPHIMURIUM, Strain/Indicator: TA98, Metabolic Activation: RAT, LIVER, S-9, DI(2-ETHYLHEXYL)PHTHALATE, Method: STANDARD PLATE). The mutagenic call runs as follows: under setting [9], “inactive; negative”; under setting [10], “inactive; negative”; (Test System: AMES SALMONELLA TYPHIMURIUM, Strain/Indicator: TA100, Metabolic Activation: RAT, LIVER, S-9, DI(2-ETHYLHEXYL)PHTHALATE, Method: STANDARD PLATE) “inactive; negative”; (Test System: AMES SALMONELLA TYPHIMURIUM, Strain/Indicator: TA102, Metabolic Activation: NONE, Method: STANDARD PLATE) “inactive; negative”; (Test System: AMES SALMONELLA TYPHIMURIUM, Strain/Indicator: TA102, Metabolic Activation: RAT, LIVER, S-9, AROCLOR 1254, Method: STANDARD PLATE) “inactive; negative”; (Test System: AMES SALMONELLA TYPHIMURIUM, Strain/Indicator: TA102, Metabolic Activation: RAT, LIVER, S-9, DI(2-ETHYLHEXYL)PHTHALATE, Method: STANDARD PLATE) “inactive; negative”.
